The source made the active and inactive calls. The rule behind the calls is not given here.
Key:
[1] = target: Outer membrane protein MIP (Legionella pneumophila) (UniProt Q70YI1)
[2] = target: Outer membrane protein MIP (Legionella pneumophila) (UniProt Q70YI1); remark: listed apart in the source
[3] = target: Outer membrane protein MIP (Legionella pneumophila) (UniProt Q70YI1); remark: listed apart in the source
[4] = target: Outer membrane protein MIP (Legionella pneumophila) (UniProt Q70YI1); remark: listed apart in the source
[5] = target: T1, Macrophage infectivity potentiator (Trypanosoma cruzi) (UniProt Q09734)
T1 sequence (whole entry): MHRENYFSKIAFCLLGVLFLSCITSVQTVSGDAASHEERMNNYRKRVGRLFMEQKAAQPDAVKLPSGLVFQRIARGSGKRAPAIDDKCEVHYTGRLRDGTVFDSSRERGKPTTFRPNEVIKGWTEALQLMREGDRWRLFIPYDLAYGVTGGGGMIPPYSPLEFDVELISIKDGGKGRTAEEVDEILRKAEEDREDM

[6] = target: Outer membrane protein MIP (Legionella pneumophila) (UniProt Q70YI1); remark: listed apart in the source
[7] = target: Outer membrane protein MIP (Legionella pneumophila) (UniProt Q70YI1); remark: listed apart in the source
[8] = target: Outer membrane protein MIP (Legionella pneumophila) (UniProt Q70YI1); remark: listed apart in the source
[9] = target: Outer membrane protein MIP (Legionella pneumophila) (UniProt Q70YI1); remark: listed apart in the source
[10] = target: T1, Macrophage infectivity potentiator (Trypanosoma cruzi); remark: listed apart in the source
[11] = target: T1, Macrophage infectivity potentiator (Trypanosoma cruzi); remark: listed apart in the source
[12] = target: T2, Peptidyl-prolyl cis-trans isomerase (Burkholderia pseudomallei (strain K96243)) (UniProt Q63J95)
T2 sequence (whole entry): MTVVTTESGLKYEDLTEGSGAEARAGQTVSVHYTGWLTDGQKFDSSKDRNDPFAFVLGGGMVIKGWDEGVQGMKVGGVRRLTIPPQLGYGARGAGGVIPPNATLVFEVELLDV

[13] = target: T2, Peptidyl-prolyl cis-trans isomerase (Burkholderia pseudomallei (strain K96243)); remark: listed apart in the source
[14] = target: T2, Peptidyl-prolyl cis-trans isomerase (Burkholderia pseudomallei (strain K96243)); remark: listed apart in the source

Structure (SMILES)	Time [1] [nanoseconds]	Time [2] [nanoseconds]	Activity [3]	Activity [4]	Time [5] [nanoseconds]	Activity [6]	Activity [7]	Activity [8]	Activity [9]	Activity [10]	Activity [11]	Time [12] [nanoseconds]	Activity [13]	Activity [14]
O=C(NCc1cccnc1)[C@H](Cc1ccc(F)cc1)NC(=O)[C@@H]1CCCCN1S(=O)(=O)Cc1ccc(F)cc1	25.4	9.7	Active	Active	14.5	Active	Active	Active	Active	Active	Active	7.8	Active	–
CC(C)C[C@H](NC(=O)[C@@H]1CCCCN1S(=O)(=O)Cc1ccc(F)cc1)C(=O)NCc1cccnc1	27.9	8.8	Active	Active	13.8	Active	Active	Active	Active	Active	–	7.6	Active	Active

— ChEMBL document CHEMBL6103611, “Structure and Dynamics of Macrophage Infectivity Potentiator Proteins from Pathogenic Bacteria and Protozoans Bound to Fluorinated Pipecolic Acid Inhibitors” (J Med Chem, 2025)
